Measured values: patent US11219625B2, “Inhibitors of N-linked glycosylation and methods using same” (YALE UNIVERSITY, priority 2015, dated 2022)

How the values were obtained:
Type in all cases: cell-based
HEK293 cells = assay: Celltiter Glo viability assay, HEK293; settings: HEK293 EC50 over NLG AC40
Source text: (§1) The HTS approach using the bioluminescent N-linked glycosylation reporter (CCR 2011) in D54-ERLucT and D54-LucT cells has been previously described (Bennett, et al., Transl Oncol 2013, 6, 382-391). Briefly, the primary cell-based screen detects site occupancy of NLG sequons using a modified luciferase protein translated into the ER. […] The methodology for the primary (D54-ERlucT), secondary (D54-LucT), and tertiary (luciferase inhibition) screens as well and toxicity assays with CelltitreGlo are deposited in Pubchem (AID 588693).
(§2) To better understand the connection between structure and activity, analogs were prepared and tested in the D54-ERLucT cell based assay for inhibition of N-linked glycosylation (FIG. 1B). The assay was used to estimate and compare AC40 values among analogs and to guide the design of improved compounds that inhibited N-linked glycosylation. This effort generated 36 unique compounds with modifications to the amine component of the sulfonamide functionality (red), the pyrrolidine moiety (blue) or the methylaminothiazole group (green). Generally, incorporation of larger sulfonamides (i.e., larger secondary amines appended to the sulphone) was not well tolerated, resulting in erosion of potency (7 analogs). However, steric interactions could be mitigated by the introduction of a hydrogen bond accepting oxygen in a larger cyclic amine. Thus, morpholine was determined to be an acceptable surrogate for the dimethylamine component of the sulfonamide (FIGS. 1A-1D). The pyrrolidine group (blue) was replaced with various alkyl, cycloalkyl, and amine groups (7 compounds). The aminothiazole moiety was derivatized most extensively of all three regions (green highlighted area, 22 analogs). […] Analogs with the highest potency in the luciferase assay were retested with western blot analysis to insure that measurements of luciferase activation corresponded to loss of N-linked glycosylation.

[1] = Celltiter Glo viability assay, HEK293; settings: human, HEK293 cells; HEK293, 72 h of compound exposure; read-out: Cytotoxicity Assay Mean EC50
Source text: as §1, §2

PC9 cells = assay: MTT proliferation assay, PC9; settings: PC9, 10 μM NGI-1, after 3 days, p<0.001
Method: (§3) FIGS. 4A-4H illustrate the finding that NGI-1 blocks RTK driven proliferation. FIG. 4A illustrates western blot analysis of EGFR phosphorylation (Y1173) and gel mobility in PC9 (EGFR-mutant) and A549 (k-ras mutant) NSCLC cells after 10 μM NGI-1 treatment for 24 h. […] Actin expression was used as a control for protein loading. FIG. 4B illustrates MTT assays results of PC9 following treatment with 10 μM NGI-1 or 1 μM tunicamycin for a total of 5 d. Relative proliferation id reported in fold increase from day 0. FIG. 4C illustrates MTT assays results of A549 following treatment with 10 μM NGI-1 or 1 μM tunicamycin for a total of 5 d. Relative proliferation id reported in fold increase from day 0. FIG. 4D illustrates protein phosphorylation profiles of PC9 cells analyzed by phospho-protein array to assess the response of PC9 to 10 μM NGI-1 for 24 h. FIG. 4E illustrates protein phosphorylation profiles of A549 cells analyzed by phospho-protein array to assess the response of A549 to 10 μM NGI-1 for 24 h. […]
(§4) Growth rates were determined by CellTiter 96 NonRadioactive Cell Proliferation Assay (Promega; Madison, Wis. USA) according to the manufacturer's directions. […] Cell numbers were estimated after 0, 3, and 5 days by adding MTT [(3-(4,5-Dimethylthiazol-2-yl)-2,5-diphenyltetrazolium bromide] reagent to the wells 4 hours before taking the spectrophotometric reading (absorbance at 570 nm).

H2444 cells = assay: MTT proliferation assay, H2444; settings: H2444, 10 μM NGI-1, 5 d
Method: as §3, §4

HCC827 cells [2] = assay: MTT proliferation assay, HCC827; settings: HCC827, 10 μM NGI-1, 5 d, p<0.05
Method: (§5) FIGS. 7A-7D illustrate EGFR kinase domain mutant cell lines growth inhibition and cell cycle arrest response to NGI-1. FIG. 7A illustrates MTT assays to determine the effects of NGI-1 on growth of H3255 cells. FIG. 7B illustrates MIT assays to determine the effects of NGI-1 on growth of HCC827 cells. EGFR kinase domain mutant cell lines H3255 and HCC827 cells were untreated or treated with 10 μM NGI-1 for 5 d. […] FIG. 7C illustrates cell cycle distribution of H3255 after 24 h NGI-1 treatment for 24 h determined by flow cytometry. FIG. 7D illustrates cell cycle distribution of HCC827 after 24 h NGI-1 treatment for 24 h determined by flow cytometry.
Growth rates were determined by CellTiter 96 NonRadioactive Cell Proliferation Assay (Promega; Madison, Wis. USA) according to the manufacturer's directions. Briefly, NSCLC cells (2×10^3) untreated or treated with […] NGI-1 or 1 μM Tn, were seeded in triplicates in 96-wells plates and grown in culture medium containing […]. Cell numbers were estimated after 0, 3, and 5 days by adding MTT [(3-(4,5-Dimethylthiazol-2-yl)-2,5-diphenyltetrazolium bromide] reagent to the wells 4 hours before taking the spectrophotometric reading (absorbance at 570 nm).

HepG2 cells = assay: Celltiter Glo viability assay, HepG2; settings: HEPG2 EC50 over NLG AC40
Source text: as §1, §2

[3] = Celltiter Glo viability assay, HepG2; settings: human, HepG2 cells; HEPG2, 72 h of compound exposure; read-out: Cytotoxicity Assay Mean EC50
Source text: as §1, §2

HCC827 cells [4] = assay: Cell cycle distribution by flow cytometry, HCC827; settings: HCC827, NGI-1 24 h, p<0.01
Method: as §5
For the assessment of cell cycle distribution, 1×10^6 cells were collected, washed once with ice-cold PBS and fixed in ice-cold 70% ethanol overnight at −20° C. Thereafter, cells were washed twice with PBS and incubated for 30 min at room temperature in 200 μL of Guava Cell Cycle Reagent (Guava Technologies). Cytofluorometric acquisitions were performed on a LSRII cytometer (BD Biosciences). First-line analysis was performed with Flow Jo software, upon gating on the events characterized by normal forward and side scatter parameters and discrimination of doublets in a FSC-A vs. FSC-H bivariate plot. Approximately 30,000 cells were analyzed per experiment, and the mean value was obtained from 3 independent assays.

A549 cells = assay: MTT proliferation assay, A549; settings: A549, 10 μM NGI-1 or 1 μM tunicamycin
Method: as §3, §4

SMILES: Cc1cnc(NC(=O)c2cc(S(=O)(=O)N(C)C)ccc2N2CCCC2)s1 [NGI-1, 5-(N,N-Dimethylsulfamoyl)-N-(5-methylthiazol-2-yl)-2-(pyrrolidin-1-yl)benzamide]
- Selectivity (EC50/AC40) (HEK293 cells): >172
- EC50 at 72 h [1]: > 30 µM
- reduction of cell proliferation, MTT (PC9 cells): more than 90%
- effect on proliferation, MTT (H2444 cells): insensitive to NGI-1
- reduction of proliferation, MTT (HCC827 cells [2]): > 45%
- Selectivity (EC50/AC40) (HepG2 cells): >172
- EC50 at 72 h [3]: > 30 µM
- cell cycle distribution (HCC827 cells [4]): undergo G1 arrest
- effect on proliferation, MTT (A549 cells): continued to proliferate
